Results taken from US8822449B2, “Substituted aminoindanes and analogs thereof, and the pharmaceutical use thereof” (Sanofi, priority 2008, dated 2014).

biological target: T1, sodium-proton exchanger of subtype 3 (NHE3) (Homo sapiens, UniProt P48764); experiment: Recovery of intracellular pH (pHi) after acidification in LAP1 cells stably expressing NHE3 (BCECF fluorescence, FLIPR); format: cell-based; details: LAP1 cells stably expressing NHE3; pH recovery after acidification; range 1 is % inhibition at 10 μM; read-out: Activity range (inhibitory effect on NHE3)
T1 construct: expressed in transfected cells
T1 sequence (P48764 26-834): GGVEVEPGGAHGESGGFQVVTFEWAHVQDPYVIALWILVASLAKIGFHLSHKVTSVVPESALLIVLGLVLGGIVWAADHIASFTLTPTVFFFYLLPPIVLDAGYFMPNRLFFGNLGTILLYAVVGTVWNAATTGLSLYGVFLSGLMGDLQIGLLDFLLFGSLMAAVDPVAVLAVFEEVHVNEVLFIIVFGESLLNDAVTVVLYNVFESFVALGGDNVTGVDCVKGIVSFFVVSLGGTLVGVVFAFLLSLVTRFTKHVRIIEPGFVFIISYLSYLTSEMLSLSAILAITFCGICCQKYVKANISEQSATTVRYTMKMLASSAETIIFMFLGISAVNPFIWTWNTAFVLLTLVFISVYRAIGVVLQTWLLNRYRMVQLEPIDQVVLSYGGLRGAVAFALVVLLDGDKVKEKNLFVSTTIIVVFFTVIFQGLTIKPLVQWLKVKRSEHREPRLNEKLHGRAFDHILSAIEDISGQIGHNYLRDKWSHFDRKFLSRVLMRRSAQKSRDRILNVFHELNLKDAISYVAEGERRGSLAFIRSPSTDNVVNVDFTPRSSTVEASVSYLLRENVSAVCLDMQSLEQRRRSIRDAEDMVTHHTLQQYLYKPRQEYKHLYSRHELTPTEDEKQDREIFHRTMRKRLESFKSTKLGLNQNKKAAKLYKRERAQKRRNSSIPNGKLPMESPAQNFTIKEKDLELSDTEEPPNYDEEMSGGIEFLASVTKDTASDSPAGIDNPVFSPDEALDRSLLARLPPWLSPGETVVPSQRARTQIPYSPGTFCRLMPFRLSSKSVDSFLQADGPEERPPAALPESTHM
Experimental: In this assay, the recovery of the intracellular pH (pHi) of LAP1 cells which stably express the sodium-proton exchanger of subtype 3 (NHE3) after acidification was determined. The recovery occurs even under bicarbonate-free conditions with functional NHE3. To this end, the pHi was determined using the pH-sensitive fluorescent dye BCECF (Molecular Probes, Eugene, Oreg., USA, employing the precursors BCECF-AM). The cells were initially incubated with BCECF (5 μM BCECF-AM) in NH4Cl buffer (NH4Cl buffer: 115 mM cholineCl, 20 mM NH4Cl, 5 mM KCl, 1 mM CaCl2, 1 mM MgCl2, 20 mM Hepes, 5 mM glucose, a pH of 7.4 was adjusted with 1 M KOH). The intracellular acidification was induced by washing the cells incubated in NH4Cl buffer with NH4Cl-free buffer (133.8 mM choline chloride, 4.7 mM KCl, 1.25 mM CaCl2, 1.25 mM MgCl2, 0.97 mM K2HPO4, 0.23 mM KH2PO4, 5 mM Hepes, 5 mM glucose, a pH of 7.4 was adjusted with 1 M KOH). After the washing step, 90 μl of the NH4Cl-free buffer were left on the cells. The pH recovery was started by adding 90 μl of Na^+-containing buffer (133.8 mM NaCl, 4.7 mM KCl, 1.25 mM CaCl2, 1.25 mM MgCl2, 0.97 mM Na2HPO4, 0.23 mM NaH2PO4, 10 mM Hepes, 5 mM glucose, a pH of 7.4 was adjusted with 1 M NaOH) in a measuring instrument (FLIPR, “Fluorometric Imaging Plate Reader”, Molecular Devices, Sunnyvale, Calif., USA). The BCECF fluorescence was determined with an excitation wavelength of 498 nm and the FLIPR emission filter 1 (bandpass from 510 to 570 nm). The subsequent changes in fluorescence as a measure of pH recovery were recorded for two minutes. To calculate the NHE3-inhibitory power of the tested substances, the cells were initially investigated in buffers with which complete or absolutely no pH recovery took place. For complete pH recovery (100%), the cells were incubated in Na^+-containing buffer (see above), and to determine the 0% value were incubated in Na^+-free buffer (see above). The substances to be tested were made up in Na^+-containing buffer. The recovery of the intracellular pH at each tested concentration of a substance was expressed as percent of the maximum recovery.
The IC50 of the respective substance for NHE3 was calculated from the percentages of pH recovery using the program XLFit (idbs, Surrey, UK).

SMILES | IC50 [nM] | inhibition at 10 µM [%]
CS(=O)(=O)c1ccc(O[C@H]2c3cc(Cl)cc(F)c3C[C@@H]2N2CCNCC2)cc1 (racemic) [Example 292, 1-[rac-trans-(1,2)-6-chloro-4-fluoro-1-(4-methanesulfonylphenoxy)indan-2-yl]piperazine] | < 1000 | –
N#Cc1ccc(O[C@H]2c3ccccc3CC[C@@H]2N2CCC[C@H](N)C2)c(F)c1F (racemic) [Example 528, 4-[rac-trans-(1,2)-2-((S)-3-aminopiperidin-1-yl)-1,2,3,4-tetrahydronaphthalen-1-yloxy]-2,3-difluorobenzonitrile] | 1000 to 10000 | –
CC(=O)Nc1cccc(O[C@@H]2c3cc(Cl)cc(F)c3C[C@H]2N2CCC[C@@H](N)C2)c1 (racemic) [Example 678, N-{3-[rac-trans-(1,2)-2-((R)-3-aminopiperidin-1-yl)-6-chloro-4-fluoroindan-1-yloxy]phenyl}acetamide] | < 1000 | –
COc1cccc(F)c1O[C@@H]1c2ccccc2C[C@H]1N1CCC(N)C1 (mixture of isomers) [Example 266, 1-[rac-trans-(1,2)-1-(2-fluoro-6-methoxyphenoxy)indan-2-yl]pyrrolidin-3-ylamine] | 1000 to 10000 | –
N#Cc1csc(-c2ccc(O[C@@H]3c4ccccc4C[C@H]3N3CCC[C@@H](N)C3)cc2)n1 (racemic) [Example 381, 2-{4-[rac-trans-(1,2)-2-((R)-3-aminopiperidin-1-yl)indan-1-yloxy]phenyl}thiazole-4-carbonitrile] | 1000 to 10000 | –
N#Cc1ccc(O[C@H]2c3ccccc3CC[C@@H]2N2CCC[C@@H](N)C2)cc1 (racemic) [Example 516, 4-[rac-trans-(1,2)-2-((R)-3-aminopiperidin-1-yl)-1,2,3,4-tetrahydronaphthalen-1-yloxy]benzonitrile] | < 1000 | –
CS(=O)(=O)c1ccc(O[C@H]2c3cc(Cl)cc(Cl)c3C[C@@H]2N2CC[C@@H](CO)C2)cc1 [Example 227, {(R)-1-[trans-(1S,2S)-4,6-dichloro-1-(4-methanesulfonylphenoxy)indan-2-yl]pyrrolidin-3-yl}methanol] | 1000 to 10000 | –
Cc1nn(-c2ccc(O[C@H]3c4cc(Cl)cc(Cl)c4C[C@@H]3N3CC[C@@H](O)C3)cc2)c(=O)o1 [Example 733, 3-{4-[trans-(1S,2S)-4,6-Dichloro-2-((R)-3-hydroxy-pyrrolidin-1-yl)-indan-1-yloxy]-phenyl}-5-methyl-3H-[1,3,4]oxadiazol-2-one] | 1000 to 10000 | –
O=C1CCC(=O)N1c1ccc(O[C@H]2c3cc(Cl)cc(Cl)c3C[C@@H]2N2CC[C@@H](O)C2)c(Cl)c1 [Example 322, 1-{3-chloro-4-[(1S,2S)-4,6-dichloro-2-((R)-3-hydroxypyrrolidin-1-yl)indan-1-yloxy]phenyl}pyrrolidine-2,5-dione] | < 1000 | –
Cc1cc(O[C@H]2c3ccccc3CC[C@@H]2N2CCC[C@@H](N)C2)ccc1Cl (racemic) [Example 65, (R)-1-[rac-trans-(1,2)-1-(4-chloro-3-methylphenoxy)-1,2,3,4-tetrahydronaphthalen-2-yl]piperidin-3-ylamine] | – | 20 to 50
N#Cc1c(F)cccc1O[C@H]1c2ccccc2CC[C@@H]1N1CCC[C@@H](N)C1 (racemic) [Example 367, 2-[rac-trans-(1,2)-2-((R)-3-aminopiperidin-1-yl)-1,2,3,4-tetrahydronaphthalen-1-yloxy]-6-fluorobenzonitrile] | – | 20 to 50
Cc1nnc(C)n1-c1ccc(O[C@H]2c3cc(Cl)cc(Cl)c3C[C@@H]2N2CC[C@@H](F)C2)cc1 [Example 561, 4-{4-[trans-(1S,2S)-4,6-dichloro-2-((R)-3-fluoropyrrolidin-1-yl)indan-1-yloxy]phenyl}-3,5-dimethyl-4H-[1,2,4]triazole] | < 1000 | –
NC(=O)c1ccc(O[C@@H]2c3ccccc3C[C@H]2N2CCC(N)C2)cc1 (mixture of isomers) [Example 544, 4-[rac-trans-(1,2)-2-(3-aminopyrrolidin-1-yl)indan-1-yloxy]benzamide] | 1000 to 10000 | –
CC(=O)Nc1cccc(O[C@H]2c3ccccc3CC[C@@H]2N2CCC[C@H](N)C2)c1 (racemic) [Example 684, N-{3-[rac-trans-(1,2)-2-((S)-3-aminopiperidin-1-yl)-1,2,3,4-tetrahydronaphthalen-1-yloxy]phenyl}acetamide] | – | 20 to 50
CC(=O)Nc1cccc(O[C@H]2c3cc(Cl)cc(F)c3C[C@@H]2N2CCNCC2)c1 (racemic) [Example 659, N-[3-(rac-trans-(1,2)-6-chloro-4-fluoro-2-piperazin-1-ylindan-1-yloxy)phenyl]acetamide] | < 1000 | –
NCC1CCN([C@@H]2Cc3ccccc3[C@H]2Oc2cccc(NC(N)=O)c2)CC1 (racemic) [Example 235, {3-[rac-trans-(1,2)-2-(4-aminomethylpiperidin-1-yl)indan-1-yloxy]phenyl}urea] | 1000 to 10000 | –
CCN(CC)[C@@H]1Cc2ccccc2[C@H]1Oc1ccc(CCOC)cc1 (racemic) [Example 628, Diethyl-{rac-trans-(1,2)-1-[4-(2-methoxyethyl)phenoxy]indan-2-yl}amine] | 1000 to 10000 | –
Cc1cc(C)c2cccnc2c1O[C@H]1c2ccccc2CC[C@@H]1N1CCC[C@H](N)C1 (racemic) [Example 187, (S)-1-[rac-trans-(1,2)-1-(5,7-dimethylquinolin-8-yloxy)-1,2,3,4-tetrahydronaphthalen-2-yl]piperidin-3-ylamine] | – | 20 to 50
COc1cc(O[C@H]2c3ccccc3CC[C@@H]2N2CCC[C@@H](N)C2)ccc1Br (racemic) [Example 63, (R)-1-[rac-trans-(1,2)-1-(4-bromo-3-methoxyphenoxy)-1,2,3,4-tetrahydronaphthalen-2-yl]piperidin-3-ylamine] | – | 20 to 50
CN1CCCN([C@H]2Cc3c(Cl)cc(Cl)cc3[C@@H]2Oc2ccc(S(C)(=O)=O)cc2)CC1 (racemic) [Example 279, 1-[rac-trans-(1,2)-4,6-dichloro-1-(4-methanesulfonylphenoxy)indan-2-yl]-4-methyl-[1,4]diazepane] | < 1000 | –
N[C@@H]1CCCN([C@@H]2Cc3ccccc3[C@H]2Oc2cccc(N3CCCCC3)c2)C1 (racemic) [Example 59, (R)-1-[rac-trans-(1,2)-1-(3-piperidin-1-ylphenoxy)indan-2-yl]piperidin-3-ylamine] | 1000 to 10000 | –
N[C@@H]1CCCN([C@@H]2Cc3ccccc3[C@H]2Oc2ccc(-n3ccnc3)cc2)C1 (racemic) [Example 72, (R)-1-[rac-trans-(1,2)-1-(4-imidazol-1-ylphenoxy)indan-2-yl]piperidin-3-ylamine] | < 1000 | –
NS(=O)(=O)c1ccc(O[C@H]2c3ccccc3C[C@@H]2CN2CCCCC2)c(F)c1 (racemic) [Example 450, 3-fluoro-4-(2-piperidin-1-ylmethylindan-1-yloxy)benzenesulfonamide] | – | 20 to 50
N[C@@H]1CCCN([C@@H]2Cc3ccccc3[C@H]2Oc2cccc(CN3CCCCC3)c2)C1 (racemic) [Example 58, (R)-1-[rac-trans-(1,2)-1-(3-piperidin-1-ylmethylphenoxy)indan-2-yl]piperidin-3-ylamine] | 1000 to 10000 | –
COc1cccc(CC#N)c1O[C@H]1c2ccccc2CC[C@@H]1N1CCC[C@@H](N)C1 (racemic) [Example 229, {2-[rac-trans-(1,2)-2-((R)-3-aminopiperidin-1-yl)-1,2,3,4-tetrahydronaphthalen-1-yloxy]-3-methoxyphenyl}acetonitrile] | – | 20 to 50
